Data taken from patent US20260241307A1, “PROCESS FOR MAKING DRUG CRYSTALS OF DESIRED SIZE DISTRIBUTION AND MORPHOLOGY” (EUPRAXIA PHARMACEUTICALS INC., priority 2019, published 2026).

Key:
Format in all cases: physicochemical
[1] = Laser diffraction particle size analysis of recrystallized crystals; conditions: large scale batch, recrystallized from methanol, slow evaporation, isotherm 25° C.
Text: As used herein, laser diffraction is the methodology used for measuring and analyzing particle size and size distribution of a sample or collection of particles (e.g., the recrystallized columnar crystals and the sized crystals). More specifically, a D10 value refers to the diameter at which 10% of the sample's mass is comprised of particles with a diameter less than this value. Likewise, a D50 value is the diameter of the particle that 50% of a sample's mass is smaller than and 50% of a sample's mass is larger than the value.
In histogram, D10, D50 and D90 are intercepts for 10%, 50% and 90% of the cumulative mass in the particles size. Since the density is the same for all particles, then the mass and volume are linearly related, thus the % remains the same. The method used also reports the cumulative distribution in volume.
Different large-scale batches were run to show the reproducibility of the recrystallization method. Laser diffraction results of particle size analysis for four large scale batches are below:
(§1) The laser diffraction method assumes an equivalent sphere when calculating the results. The aspect ratio in the imaging analysis show a range of aspect ratio from 3 to 50, while a majority of aspect ratios are in the range of 5-20.

[2] = Imaging analysis of aspect ratio
Text: as §1

[3] = Particle size distribution by Malvern particle size analyzer (sized crystals); conditions: after milling in rotor/stator homogenizer and sieving
Text: The milled crystals were then sieved through two separate sieves to eliminate fines or remnant large crystals. […] As shown, the drug crystal obtained have relatively narrow distribution and the minimal amount of fine material and absence of very fine material (no particles below 9 μm).

Row | Structure (SMILES) | D10 [1] [µm] | D50 [1] [µm] | D90 [1] [µm] | aspect ratio, majority ([2]; majority of aspect ratios) | aspect ratio, range ([2]; whole range) | smallest particle size (no particles below) [3] [μm]
1 | CCC(=O)O[C@]1(C(=O)SCF)[C@H](C)C[C@H]2[C@@H]3C[C@H](F)C4=CC(=O)C=C[C@]4(C)[C@@]3(F)[C@@H](O)C[C@@]21C [Batch 2, fluticasone propionate] | 97 | 323 | 838 | – | – | –
2 | CCC(=O)O[C@]1(C(=O)SCF)[C@H](C)C[C@H]2[C@@H]3C[C@H](F)C4=CC(=O)C=C[C@]4(C)[C@@]3(F)[C@@H](O)C[C@@]21C [Batch 4, fluticasone propionate] | 82 | 288 | 820 | – | – | –
3 | CCC(=O)O[C@]1(C(=O)SCF)[C@H](C)C[C@H]2[C@@H]3C[C@H](F)C4=CC(=O)C=C[C@]4(C)[C@@]3(F)[C@@H](O)C[C@@]21C [recrystallized fluticasone propionate, fluticasone propionate] | – | – | – | 5-20 | 3 to 50 | –

Further lines, results first:

Row | D10 [1] [µm] | D50 [1] [µm] | D90 [1] [µm] | aspect ratio, majority ([2]; majority of aspect ratios) | aspect ratio, range ([2]; whole range) | smallest particle size (no particles below) [3] [μm] | Structure (SMILES)
4 | 119 | 365 | 876 | – | – | – | CCC(=O)O[C@]1(C(=O)SCF)[C@H](C)C[C@H]2[C@@H]3C[C@H](F)C4=CC(=O)C=C[C@]4(C)[C@@]3(F)[C@@H](O)C[C@@]21C [Batch 1, fluticasone propionate]
5 | 72 | 253 | 798 | – | – | – | CCC(=O)O[C@]1(C(=O)SCF)[C@H](C)C[C@H]2[C@@H]3C[C@H](F)C4=CC(=O)C=C[C@]4(C)[C@@]3(F)[C@@H](O)C[C@@]21C [Batch 3, fluticasone propionate]
6 | – | – | – | – | – | ≥ 9 | CCC(=O)O[C@]1(C(=O)SCF)[C@H](C)C[C@H]2[C@@H]3C[C@H](F)C4=CC(=O)C=C[C@]4(C)[C@@]3(F)[C@@H](O)C[C@@]21C [resized drug crystals, fluticasone propionate]
